Measurements reported in patent US11026999B2, “Insulin glargine/lixisenatide fixed ratio formulation” (SANOFI-AVENTIS DEUTSCHLAND GMBH, priority 2013, dated 2021).

Columns and labels:
type 2 diabetic patients [1] = assay: 7-point Self-Monitored Plasma Glucose (SMPG) profile (Example 1); assay type: in vivo, human; settings: mITT population
From the text: In yet another aspect of the present invention, the composition as described herein can be used for improving average 7-point SMPG profile. […] Self-monitored plasma glucose (SMPG), as used herein, is in particular the “7-point Self Monitored Plasma Glucose”. “7-point Self Monitored Plasma Glucose” in particular refers to the measurement of plasma glucose seven times a day and calculation of the average plasma glucose concentration therefrom. The “7-point Self Monitored Plasma Glucose” value is in particular an average plasma glucose concentration including fasting and postprandial conditions. In particular, measurements of plasma glucose concentration are performed pre-breakfast, post-breakfast (e.g. 2-hour post-breakfast), pre-lunch, post-lunch (e.g. 2-hour post-lunch), pre-dinner, post-dinner (e.g. 2-hour post-dinner) and at bedtime (see also FIG. 3). The treatment by the combination of the present invention, as described herein, can improve the self-monitored plasma glucose.
(§1) Criteria for Evaluation: • Efficacy: • Primary Endpoint: • Change in HbA1c from baseline to Week 24 • Secondary Endpoints: • Change in 2-hour PPG during meal test from baseline to Week 24 • Change in 2-hour plasma glucose excursion during meal test from baseline to Week 24 • Percentage of patients reaching HbA1c ≤6.5% or <7% at Week 24 • Change in 7-point SMPG profiles from baseline to Week 24 (each time point and mean daily value) • Change in body weight from baseline to Week 24, • Average daily Insulin glargine dose at Week 24 • Change in FPG from baseline to Week 24 • Percentage of patients requiring rescue therapy during the 24-week open-label treatment period • Change in 30-minute and 1-hour PPG and plasma glucose excursion during meal test from baseline to week 24 • Percentage of patients reaching HbA1c <7% at week 24 with no documented symptomatic hypoglycemia during the 24-week open label treatment period • Percentage of patients reaching HbA1c <7% with no weight gain at week 24
(§2) All continuous secondary efficacy endpoints were analyzed using a similar ANCOVA model with treatment, randomization strata of screening HbA1c (<8%, ≥8%), randomization strata of screening BMI (<30 kg/m^2, ≥30 kg/m^2) and country as fixed effects and using the baseline value of the corresponding parameter as a covariate. Insulin glargine dose was not included in the ANCOVA model as a covariate since patients enrolled were insulin-naïve.

type 2 diabetic patients [2] = assay: 2-hour plasma glucose excursion during standardized meal test (Example 1); assay type: in vivo, human; settings: mITT population; for 2-hour plasma glucose excursion change from baseline to Week 24 (LOCF), LS Mean (SE): ANCOVA
From the text: The diabetes type 2 patient may have a glucose excursion (in particular a 2-hour postprandial glucose excursion of at least 2 mmol/L, at least 3 mmol/L, at least 4 mmol/L, at least 5 mmol/L, at least 5.5 mmol/L, at least 6 mmol/L, at least 6.5 mmol/L, or at least 7 mmol/L at the onset of the treatment with the composition of the present invention. In the present invention, the glucose excursion is in particular the difference of the 2-hour postprandial plasma glucose concentration and the plasma glucose concentration 30 minutes prior to a meal test.
as §1, §2

type 2 diabetic patients [3] = assay: HbA1c, 24-week phase 2 study on top of metformin (Example 1); assay type: in vivo, human; settings: mITT population; for HbA1c change from baseline to Week 24 (LOCF), LS Mean (SE): ANCOVA
Description: A randomized, 24-week, open-label, 2-arm parallel-group, multicenter study comparing the efficacy and safety of insulin glargine/lixisenatide fixed ratio combination versus insulin glargine on top of metformin in type 2 diabetic patients.
Methodology: This was an open-label, 1:1 randomized, active-controlled, 2-arm, 24-week duration, parallel-group study comparing: • Insulin glargine/lixisenatide fixed ratio (2 U of insulin glargine for 1 μg of lixisenatide) combination • Insulin glargine alone
Diagnosis and criteria for inclusion: Patients with type 2 diabetes mellitus diagnosed for at least 1 year, treated with metformin at a stable dose of at least 1.5 g/day for at least 3 months prior to screening visit, and with HbA1c ≥7%, and ≤10% at screening.
In both groups, the initial daily dose of insulin glargine to be administered during the first week of treatment was 10 U. Afterwards, the dose was adjusted to achieve a target fasting SMPG in the range of 80 to 100 mg/dL (4.4 to 5.6 mmol/L). The dose was titrated weekly until the patient reached the target fasting SMPG. Thereafter, until the end of the study, the dose was adjusted as necessary to maintain a fasting SMPG between 80 and 100 mg/dL (4.4 and 5.6 mmol/1), inclusive. Doses could be reduced or modified at any time for hypoglycemia.
If a 60 U/30 μg dose was not sufficient to maintain FPG/HbA1c below predefined thresholds values, the dose was to be kept at 60 U and a rescue therapy was to be introduced.
as §1
The primary endpoint (change in HbA1c from baseline to week 24) was analyzed using an analysis of covariance (ANCOVA) model with treatment (insulin glargine/lixisenatide fixed ratio combination, insulin glargine alone), randomization strata of screening HbA1c (<8%, ≥8%), randomization strata of screening BMI (<30 kg/m^2, ≥30 kg/m^2) and country as fixed effects and using the baseline HbA1c value as a covariate.
The non-inferiority of insulin glargine/lixisenatide fixed ratio combination to insulin glargine alone was tested using a 1-sided statistical test with alpha level of 0.025 and a non-inferiority margin of 0.4% HbA1c. […] If non-inferiority is established, then a corresponding check of statistical superiority of insulin glargine/lixisenatide fixed ratio combination over insulin glargine alone would be performed for the primary endpoint.
All categorical secondary efficacy endpoints were analyzed by using Cochran-Mantel-Haenszel (CMH) method stratified by randomization strata of screening HbA1c (<8%, ≥8%) and BMI (<30 kg/m^2, ≥30 kg/m^2).

type 2 diabetic patients [4] = settings: in vivo
Description: Safety: The safety analysis was conducted on the safety population, defined as all randomized patients who received at least one dose of IMP (regardless of the amount of treatment administered). The evaluation of AEs, laboratory, vital sign, and ECG data was descriptive.

type 2 diabetic patients [5] = assay: 2-hour postprandial plasma glucose during standardized meal test (Example 1); assay type: in vivo, human; settings: mITT; for 2-hour postprandial plasma glucose change from baseline to Week 24 (LOCF), LS Mean (SE): ANCOVA
From the text: as §1, §2

Gly(A21)-Arg(B31)-Arg(B32)-human insulin [Insulin Glargine]
Average 7-point SMPG at Week 24 (LOCF), Mean (SD) (type 2 diabetic patients [1]): 7.01 (1.15) mmol/L
Average 7-point SMPG at Week 24 (LOCF), Median (type 2 diabetic patients [1]): 6.94 mmol/L
Average 7-point SMPG change from baseline to Week 24 (LOCF), Mean (SD) (type 2 diabetic patients [1]): −2.81 (2.18) mmol/L
Average 7-point SMPG change from baseline to Week 24 (LOCF), Median (type 2 diabetic patients [1]): -2.31 mmol/L
Average 7-point SMPG change from baseline to Week 24 (LOCF), LS Mean (SE) (type 2 diabetic patients [1]; ANCOVA): −2.93 (0.101) mmol/L
2-hour plasma glucose excursion at Week 24 (LOCF), Mean (SD) (type 2 diabetic patients [2]): 5.33 (2.79) mmol/L
2-hour plasma glucose excursion at Week 24 (LOCF), Median (type 2 diabetic patients [2]): 5.05 mmol/L
2-hour plasma glucose excursion change from baseline to Week 24 (LOCF), Mean (SD) (type 2 diabetic patients [2]): −0.61 (3.03) mmol/L
2-hour plasma glucose excursion change from baseline to Week 24 (LOCF), Median (type 2 diabetic patients [2]): -0.75 mmol/L
2-hour plasma glucose excursion change from baseline to Week 24 (LOCF), LS Mean (SE) (type 2 diabetic patients [2]): −0.67 (0.269) mmol/L
2-hour plasma glucose excursion change from baseline to Week 24 (LOCF), LS Mean (SE) (type 2 diabetic patients [2]; listed as insulin glargine): -0.67 mmol/L
HbA1c at Week 24 (LOCF), Mean (SD) (type 2 diabetic patients [3]): 6.47 (0.64) %
HbA1c at Week 24 (LOCF), Median (type 2 diabetic patients [3]): 6.40%
HbA1c change from baseline to Week 24 (LOCF), Mean (SD) (type 2 diabetic patients [3]): −1.54 (0.87) %
HbA1c change from baseline to Week 24 (LOCF), Median (type 2 diabetic patients [3]): −1.40%
Number (%) of patients with HbA1c <7.0% at Week 24 (type 2 diabetic patients [3]): 126 (78.3%) n (%)
Number (%) of patients with HbA1c ≤6.5% at Week 24 (type 2 diabetic patients [3]): 104 (64.6%) n (%)
Percentage of patients reaching HbA1c <7% at Week 24 (type 2 diabetic patients [3]): 78.3%
Percentage of patients reaching HbA1c ≤6.5% at Week 24 (type 2 diabetic patients [3]): 64.6%
HbA1c change from baseline to Week 24 (LOCF), LS Mean (SE) (type 2 diabetic patients [3]): −1.64 (0.057) %
HbA1c change from baseline to Week 24 (LOCF), LS Mean (SE) (type 2 diabetic patients [3]; listed as insulin glargine): −1.64%
TEAE: HLGT: Infections - pathogen unspecified (type 2 diabetic patients [4]): 31 (19.1%) n (%)
TEAE: HLGT: Ocular infections, irritations and inflammations (type 2 diabetic patients [4]): 4 (2.5%) n (%)
TEAE: HLGT: Viral infectious disorders (type 2 diabetic patients [4]): 8 (4.9%) n (%)
TEAE: HLT: Abdominal and gastrointestinal infections (type 2 diabetic patients [4]): 1 (0.6%) n (%)
TEAE: HLT: Conjunctival infections, irritations and inflammations (type 2 diabetic patients [4]): 2 (1.2%) n (%)
TEAE: HLT: Diarrhoea (excl infective) (type 2 diabetic patients [4]): 6 (3.7%) n (%)
TEAE: HLT: Upper respiratory tract infections (type 2 diabetic patients [4]): 21 (13.0%) n (%)
TEAE: HLT: Urinary tract infections (type 2 diabetic patients [4]): 3 (1.9%) n (%)
TEAE: Infections and infestations (type 2 diabetic patients [4]): 38 (23.5%) n (%)
TEAE: Upper respiratory tract infection (type 2 diabetic patients [4]): 5 (3.1%) n (%)
TEAE: Urinary tract infection (type 2 diabetic patients [4]): 1 (0.6%) n (%)
Treatment emergent SAE: HLGT: Infections - pathogen unspecified (type 2 diabetic patients [4]): 1 (0.6%) n (%)
Treatment emergent SAE: HLT: Urinary tract infections (type 2 diabetic patients [4]): 1 (0.6%) n (%)
Treatment emergent SAE: Infections and infestations (type 2 diabetic patients [4]): 1 (0.6%) n (%)
Treatment emergent SAE: Urinary tract infection (type 2 diabetic patients [4]): 1 (0.6%) n (%)
TEAE: HLT: Dental and oral soft tissue infections (type 2 diabetic patients [4]; po): 3 (1.9%) n (%)
2-hour postprandial plasma glucose at Week 24 (LOCF), Mean (SD) (type 2 diabetic patients [5]): 11.55 (2.83) mmol/L
2-hour postprandial plasma glucose at Week 24 (LOCF), Median (type 2 diabetic patients [5]): 11.10 mmol/L
2-hour postprandial plasma glucose change from baseline to Week 24 (LOCF), Mean (SD) (type 2 diabetic patients [5]): −3.96 (4.05) mmol/L
2-hour postprandial plasma glucose change from baseline to Week 24 (LOCF), Median (type 2 diabetic patients [5]): -3.90 mmol/L
2-hour postprandial plasma glucose change from baseline to Week 24 (LOCF), LS Mean (SE) (type 2 diabetic patients [5]): −4.33 (0.274) mmol/L
2-hour postprandial plasma glucose change from baseline to Week 24 (LOCF), LS Mean (SE) (type 2 diabetic patients [5]; listed as insulin glargine): -4.33 mmol/L
